The target of assay [1] is T1, Histamine H3 receptor (Homo sapiens, UniProt Q9Y5N1). Kind of assay: Displacement of [125I]iodoproxyfan from human histamine H3 receptor expressed in CHO-K1 cells.
Assay [2] concerns the target T2, Histamine H4 receptor (Homo sapiens, UniProt Q9H3N8). Kind of assay: Displacement of [3H]histamine from human histamine H4 receptor expressed in SF9 cells coexpressing Galphai2, Gbeta1gamma2.
For assay [3], the species on record is Homo sapiens. Put plainly: Selectivity, ratio of Ki for human histaminee H4 receptor to Ki for human histamine H3 receptor.
The target of assay [4] is Histamine H3 receptor (Rattus norvegicus, UniProt Q9QYN8). Put plainly: Displacement of [3H]histamine from histamine H3 receptor in rat cerebral cortex. The assay is classed as tissue-based.
Assay [5] addresses T1, Histamine H3 receptor. Kind of assay: Displacement of […]iodoproxyfan from human histamine H3 receptor expressed in HEK293 cells. The class given is cell-based.
The target of assay [6] is T2, Histamine H4 receptor. Put plainly: Displacement of [3H]histamine from human histamine H4 receptor expressed in HEK293 cells. The assay is classed as cell-based.

T2 sequence (Q9H3N8 whole entry): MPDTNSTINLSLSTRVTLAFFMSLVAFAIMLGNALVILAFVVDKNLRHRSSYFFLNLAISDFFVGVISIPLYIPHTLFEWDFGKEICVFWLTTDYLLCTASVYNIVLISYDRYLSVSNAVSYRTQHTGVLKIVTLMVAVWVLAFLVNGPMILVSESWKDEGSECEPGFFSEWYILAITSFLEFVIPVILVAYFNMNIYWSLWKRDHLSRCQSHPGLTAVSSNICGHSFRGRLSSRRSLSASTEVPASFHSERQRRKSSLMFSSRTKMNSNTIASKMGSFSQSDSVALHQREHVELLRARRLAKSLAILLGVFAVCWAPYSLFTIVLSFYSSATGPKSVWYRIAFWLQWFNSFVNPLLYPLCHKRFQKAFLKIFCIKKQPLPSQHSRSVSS
T1 sequence (Q9Y5N1 whole entry): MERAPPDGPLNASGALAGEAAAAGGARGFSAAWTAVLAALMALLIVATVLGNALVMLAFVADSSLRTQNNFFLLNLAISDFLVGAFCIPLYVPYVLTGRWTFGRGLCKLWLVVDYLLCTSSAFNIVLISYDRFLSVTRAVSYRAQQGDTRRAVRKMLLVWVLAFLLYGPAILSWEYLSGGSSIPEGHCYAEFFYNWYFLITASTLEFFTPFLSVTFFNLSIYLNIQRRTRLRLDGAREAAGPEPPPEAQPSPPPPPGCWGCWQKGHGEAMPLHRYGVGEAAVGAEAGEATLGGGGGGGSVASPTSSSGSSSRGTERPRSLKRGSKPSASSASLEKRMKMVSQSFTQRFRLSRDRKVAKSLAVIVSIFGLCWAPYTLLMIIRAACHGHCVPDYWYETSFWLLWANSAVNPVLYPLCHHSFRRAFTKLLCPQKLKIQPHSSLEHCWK
Chain of Histamine H3 receptor (Rattus norvegicus, UniProt Q9QYN8) (Q9QYN8 whole entry): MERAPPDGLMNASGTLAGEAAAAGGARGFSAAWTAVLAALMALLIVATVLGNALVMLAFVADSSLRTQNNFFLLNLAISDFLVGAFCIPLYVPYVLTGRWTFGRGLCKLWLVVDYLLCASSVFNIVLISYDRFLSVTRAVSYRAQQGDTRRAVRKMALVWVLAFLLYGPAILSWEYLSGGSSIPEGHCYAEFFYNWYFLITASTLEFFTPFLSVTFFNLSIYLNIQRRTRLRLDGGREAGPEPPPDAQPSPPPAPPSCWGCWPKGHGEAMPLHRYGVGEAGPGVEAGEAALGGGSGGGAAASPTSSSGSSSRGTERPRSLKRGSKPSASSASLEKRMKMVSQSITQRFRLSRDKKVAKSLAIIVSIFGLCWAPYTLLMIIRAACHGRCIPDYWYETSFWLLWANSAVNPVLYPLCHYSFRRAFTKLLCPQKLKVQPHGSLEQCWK

`CCCC[C@@H](C)NC(=O)OCCCc1cnc[nH]1`: the Ki came out at 19 nM in assay [1] and 426 nM in assay [2].

For the compound `CC[C@@H](C)NC(=O)OCCCc1c[nH]cn1`, the Ki in assay [1] came to 12 nM; in assay [2], 290 nM. In assay [3], the Ratio Ki was 24.

Regarding `CCCCC[C@H](C)NC(=O)OCCCc1cnc[nH]1`, the inhibition constant (Ki) in assay [1] amounted to 74 nM; in assay [2], 1460 nM.

The compound `CCC(C)NC(=O)OCCCc1c[nH]cn1` (racemic) returned an inhibition constant (Ki) in assay [1] of 49 nM.

For `CC(C)CCCC(C)NC(=O)OCCCc1cnc[nH]1` (racemic), the results for the inhibition constant Ki in assay [1] and in assay [4] were 75 nM and 22 nM, respectively.

Regarding `CC[C@H](C)CNC(=O)OCCCc1c[nH]cn1`, the inhibitory constant (Ki) was determined as 4.7 nM in assay [1] and 118 nM in assay [2]. For the same compound, the Ratio Ki in assay [3] came to 25.

As to `CCCCC(C)NC(=O)OCCCc1c[nH]cn1` (racemic), the Ki came to 29 nM in assay [1] and 695 nM in assay [2]. Further, the Ratio Ki in assay [3] is 24.

The compound `CC(C)CCC(C)NC(=O)OCCCc1cnc[nH]1` (racemic) showed a Ki in assay [1] of 30 nM. That is a double-digit nanomolar value.

`CCC[C@@H](C)NC(=O)OCCCc1cnc[nH]1` gave an inhibitory constant (Ki) in assay [1] of 15 nM. This Ki lies about 2-fold lower than the previous one.

For the compound `CCCCCC[C@@H](C)NC(=O)OCCCc1c[nH]cn1`, the Ki in assay [5] worked out at 28 nM. That is a double-digit nanomolar value.

As to `CCCCC(CC)CNC(=O)OCCCc1cnc[nH]1` (racemic), the values for the Ki in assay [1] and in assay [2] were 37 nM and 779 nM, respectively.

Consider `CCCCC[C@H](C)NC(=O)OCCCc1c[nH]cn1`, for which the Ratio Ki in assay [3] was found to be 20.

For `CCCCC[C@@H](C)NC(=O)OCCCc1cnc[nH]1`, the Ki in assay [1] is 41 nM; in assay [2], 636 nM.

Take `CCCC(C)CNC(=O)OCCCc1c[nH]cn1` (racemic): the Ki in assay [1] came out at 8.3 nM; in assay [2] it was 162 nM. The Ratio Ki in assay [3] worked out at 20.

For the compound `NC(=NCc1ccc(Cl)cc1)SCCCc1cnc[nH]1` [CLOBENPROPIT], in assay [6], the Ki came out at 4.3 nM.

In turn, `CCCCCC[C@H](C)NC(=O)OCCCc1c[nH]cn1` displayed an inhibition constant Ki in assay [5] of 43 nM.

`CCCC(C)NC(=O)OCCCc1c[nH]cn1` (racemic): the Ki in assay [1] was found to be 21 nM.

For `CCCCC[C@@H](C)NC(=O)OCCCc1c[nH]cn1`, in assay [3], the Ratio Ki is 16.

Consider `O=C(c1ccc(OCCCc2cnc[nH]2)cc1)C1CC1` [CIPROXIFAN], for which, in assay [6], the Ki was 612 nM.

In assay [1], `CCCC[C@H](C)NC(=O)OCCCc1cnc[nH]1` showed a Ki of 42 nM.

Regarding `CC[C@H](C)NC(=O)OCCCc1c[nH]cn1`, in assay [1], the Ki is 31 nM. This Ki and that of the compound before are within 1.5-fold of each other.

Regarding `CCCCCC(C)NC(=O)OCCCc1c[nH]cn1` (racemic), affinity in assay [1] was put at a Ki of 52 nM.

In the case of `CCC(C)CCNC(=O)OCCCc1c[nH]cn1` (racemic), the inhibitory constant (Ki) in assay [1] was found to be 13 nM; in assay [2], 123 nM. Also, the Ratio Ki in assay [3] is 9.

In assay [1], `CCCCCCC(C)NC(=O)OCCCc1c[nH]cn1` (racemic) had a Ki of 91 nM.

In the case of `CCCCC(CC)CNC(=O)OCCCc1c[nH]cn1` (racemic), the Ratio Ki in assay [3] was found to be 21.

Turning to `CCCC[C@@H](C)NC(=O)OCCCc1c[nH]cn1`, the Ratio Ki in assay [3] turned out to be 22.

Source of the values: ChEMBL document CHEMBL1154378, “Histamine H3 and H4 receptor affinity of branched 3-(1H-imidazol-4-yl)propyl N-alkylcarbamates” (Bioorg Med Chem Lett, 2009).
